ChEMBL document CHEMBL4507286 (2021)

Tests used:
[1] = target: Serine/threonine-protein kinase Nek5 (Homo sapiens) (UniProt Q6P3R8)
[2] = target: Serine/threonine-protein kinase RIO3 (Homo sapiens) (UniProt O14730)
[3] = target: Dual specificity mitogen-activated protein kinase kinase 1 (Homo sapiens) (UniProt Q02750)
[4] = target: Mitogen-activated protein kinase kinase kinase 11 (Homo sapiens) (UniProt Q16584)
[5] = target: Dual specificity protein kinase CLK2 (Homo sapiens, UniProt P49760)
[6] = target: Cyclin-dependent kinase 4 (Homo sapiens) (UniProt P11802)
[7] = tested on: Serine/threonine-protein kinase B-raf (Homo sapiens), P15056 [V600E]
[8] = target: Serine/threonine-protein kinase haspin (Homo sapiens) (UniProt Q8TF76)
[9] = tested on: Epidermal growth factor receptor (Homo sapiens), P00533 [UNDEFINED MUTATION]
[10] = target: Serine/threonine-protein kinase 24 (Homo sapiens) (UniProt Q9Y6E0)
[11] = target: Ribosomal protein S6 kinase alpha-4 (Homo sapiens) (UniProt O75676)
[12] = target: Vascular endothelial growth factor receptor 3 (Homo sapiens) (UniProt P35916)
[13] = target: Mitogen-activated protein kinase 10 (Homo sapiens) (UniProt P53779)
[14] = target: Serine/threonine-protein kinase MRCK gamma (Homo sapiens) (UniProt Q6DT37)
[15] = target: Mitogen-activated protein kinase kinase kinase kinase 3 (Homo sapiens) (UniProt Q8IVH8)
[16] = target: Phosphatidylinositol 4-phosphate 3-kinase C2 domain-containing subunit beta (Homo sapiens) (UniProt O00750)
[17] = target: Tyrosine-protein kinase ABL2 (Homo sapiens) (UniProt P42684)
[18] = target: Cyclin-dependent kinase 8 (Homo sapiens) (UniProt P49336)
[19] = tested on: Mast/stem cell growth factor receptor Kit (Homo sapiens), P10721 [V559D,V654A]
[20] = target: Aurora kinase C (Homo sapiens) (UniProt Q9UQB9)
[21] = target: Peripheral plasma membrane protein CASK (Homo sapiens) (UniProt O14936)
[22] = target: Serine/threonine-protein kinase Sgk2 (Homo sapiens) (UniProt Q9HBY8)
[23] = target: Serine/threonine-protein kinase PAK 2 (Homo sapiens) (UniProt Q13177)
[24] = target: cGMP-dependent protein kinase 2 (Homo sapiens) (UniProt Q13237)
[25] = target: Calcium/calmodulin-dependent protein kinase type 1B (Homo sapiens) (UniProt Q6P2M8)
[26] = target: Non-receptor tyrosine-protein kinase TNK1 (Homo sapiens) (UniProt Q13470)
[27] = target: MAP kinase-activated protein kinase 5 (Homo sapiens) (UniProt Q8IW41)
[28] = target: Serine/threonine-protein kinase 25 (Homo sapiens) (UniProt O00506)
[29] = tested on: Receptor-type tyrosine-protein kinase FLT3 (Homo sapiens), P36888 [K663Q]
[30] = target: TRAF2 and NCK-interacting protein kinase (Homo sapiens) (UniProt Q9UKE5)
[31] = target: Interleukin-1 receptor-associated kinase 3 (Homo sapiens) (UniProt Q9Y616)
[32] = target: Cyclin-dependent kinase-like 1 (Homo sapiens) (UniProt Q00532)
[33] = target: RAC-alpha serine/threonine-protein kinase (Homo sapiens) (UniProt P31749)
[34] = target: Cyclin-dependent kinase 17 (Homo sapiens) (UniProt Q00537)
[35] = tested on: Phosphatidylinositol 4,5-bisphosphate 3-kinase catalytic subunit alpha isoform (Homo sapiens), P42336 [I800L]
[36] = target: Serine/threonine-protein kinase Chk1 (Homo sapiens) (UniProt O14757)
[37] = target: Cyclin-dependent kinase 14 (Homo sapiens) (UniProt O94921)
[38] = target: Tyrosine-protein kinase JAK1 (Homo sapiens) (UniProt P23458)
[39] = target: Tyrosine-protein kinase receptor Tie-1 (Homo sapiens) (UniProt P35590)
[40] = target: Receptor-type tyrosine-protein kinase FLT3 (Homo sapiens) (UniProt P36888)
[41] = target: Muscarinic acetylcholine receptor M3 (Homo sapiens) (UniProt P20309); conditions: Compound concentration 10.0 uM
[42] = target: Activated CDC42 kinase 1 (Homo sapiens) (UniProt Q07912)
[43] = target: Alpha-2A adrenergic receptor (Homo sapiens) (UniProt P08913); conditions: Compound concentration 10.0 uM
[44] = target: Tyrosine-protein kinase ABL1 (Homo sapiens) (UniProt P00519)
[45] = tested on: Epidermal growth factor receptor (Homo sapiens), P00533 [G719S]
[46] = Compound concentration 100.0 nM
[47] = Compound concentration 1000.0 nM

Mitogen-activated protein kinase 10 (Homo sapiens), sequence (P53779 whole entry): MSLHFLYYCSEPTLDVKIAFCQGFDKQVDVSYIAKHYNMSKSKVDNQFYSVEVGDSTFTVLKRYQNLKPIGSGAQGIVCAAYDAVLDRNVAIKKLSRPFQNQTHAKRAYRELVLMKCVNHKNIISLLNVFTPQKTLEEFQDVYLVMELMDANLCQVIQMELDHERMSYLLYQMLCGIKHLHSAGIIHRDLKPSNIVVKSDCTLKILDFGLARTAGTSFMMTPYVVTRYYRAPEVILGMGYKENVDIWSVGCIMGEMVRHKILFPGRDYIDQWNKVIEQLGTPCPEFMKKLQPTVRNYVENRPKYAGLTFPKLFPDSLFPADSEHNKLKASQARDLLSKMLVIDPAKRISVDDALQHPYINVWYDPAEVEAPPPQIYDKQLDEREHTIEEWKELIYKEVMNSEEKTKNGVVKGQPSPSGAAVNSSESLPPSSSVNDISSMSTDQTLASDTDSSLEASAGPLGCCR
Phosphatidylinositol 4-phosphate 3-kinase C2 domain-containing subunit beta (Homo sapiens), sequence (O00750 whole entry, the tested form may be a part): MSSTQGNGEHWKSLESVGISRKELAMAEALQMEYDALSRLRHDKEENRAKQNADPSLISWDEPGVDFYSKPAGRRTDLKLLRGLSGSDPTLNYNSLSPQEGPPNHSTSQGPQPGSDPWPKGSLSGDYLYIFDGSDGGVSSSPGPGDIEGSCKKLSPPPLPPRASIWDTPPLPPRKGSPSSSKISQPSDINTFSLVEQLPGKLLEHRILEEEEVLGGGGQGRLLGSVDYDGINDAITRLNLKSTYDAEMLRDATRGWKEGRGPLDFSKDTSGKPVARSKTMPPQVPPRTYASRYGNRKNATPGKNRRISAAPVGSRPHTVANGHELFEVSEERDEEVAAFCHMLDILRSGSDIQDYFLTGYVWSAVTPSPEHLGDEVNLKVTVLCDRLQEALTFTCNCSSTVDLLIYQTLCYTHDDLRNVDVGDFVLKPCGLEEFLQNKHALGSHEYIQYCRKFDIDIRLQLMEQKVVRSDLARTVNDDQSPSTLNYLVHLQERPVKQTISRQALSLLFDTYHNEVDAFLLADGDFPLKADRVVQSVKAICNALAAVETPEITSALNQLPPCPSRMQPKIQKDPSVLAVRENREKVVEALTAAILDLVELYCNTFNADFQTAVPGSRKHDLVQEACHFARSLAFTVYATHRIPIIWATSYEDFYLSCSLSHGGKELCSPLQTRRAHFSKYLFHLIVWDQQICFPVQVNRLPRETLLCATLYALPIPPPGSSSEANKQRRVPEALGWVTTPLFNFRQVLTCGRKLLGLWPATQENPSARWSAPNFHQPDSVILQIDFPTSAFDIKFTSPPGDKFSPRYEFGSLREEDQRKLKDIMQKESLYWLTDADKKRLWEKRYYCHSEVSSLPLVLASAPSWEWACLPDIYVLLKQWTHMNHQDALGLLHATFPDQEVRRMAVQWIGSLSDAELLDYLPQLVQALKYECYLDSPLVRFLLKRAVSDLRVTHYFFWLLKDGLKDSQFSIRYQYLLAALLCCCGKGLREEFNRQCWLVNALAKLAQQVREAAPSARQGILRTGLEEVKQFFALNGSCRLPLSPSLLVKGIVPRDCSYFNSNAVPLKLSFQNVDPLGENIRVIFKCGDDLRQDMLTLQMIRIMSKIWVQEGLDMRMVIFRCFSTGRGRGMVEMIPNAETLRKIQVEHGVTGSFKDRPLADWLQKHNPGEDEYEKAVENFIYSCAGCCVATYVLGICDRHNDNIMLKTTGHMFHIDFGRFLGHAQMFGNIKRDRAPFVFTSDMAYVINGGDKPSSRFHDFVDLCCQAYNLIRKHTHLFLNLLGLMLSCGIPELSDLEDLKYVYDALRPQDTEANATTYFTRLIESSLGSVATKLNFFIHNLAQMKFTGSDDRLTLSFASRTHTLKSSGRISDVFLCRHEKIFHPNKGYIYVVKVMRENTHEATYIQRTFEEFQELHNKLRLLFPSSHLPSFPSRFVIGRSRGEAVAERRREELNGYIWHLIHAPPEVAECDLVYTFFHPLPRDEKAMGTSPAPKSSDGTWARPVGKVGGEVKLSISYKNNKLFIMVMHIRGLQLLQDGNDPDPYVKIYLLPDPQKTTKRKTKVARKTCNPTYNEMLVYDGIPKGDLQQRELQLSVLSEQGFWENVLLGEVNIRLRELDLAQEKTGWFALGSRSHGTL
Calcium/calmodulin-dependent protein kinase type 1B (Homo sapiens), sequence (Q6P2M8 whole entry): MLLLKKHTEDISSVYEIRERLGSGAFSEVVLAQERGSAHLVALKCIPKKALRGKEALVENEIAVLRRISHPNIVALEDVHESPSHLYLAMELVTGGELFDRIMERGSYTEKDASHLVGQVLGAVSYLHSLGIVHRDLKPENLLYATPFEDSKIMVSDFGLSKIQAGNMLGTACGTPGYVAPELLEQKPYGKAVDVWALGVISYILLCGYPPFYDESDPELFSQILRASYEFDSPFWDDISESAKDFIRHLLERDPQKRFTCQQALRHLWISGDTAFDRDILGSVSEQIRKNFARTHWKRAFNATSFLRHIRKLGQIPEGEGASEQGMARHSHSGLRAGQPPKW
Cyclin-dependent kinase 4 (Homo sapiens), sequence (P11802 whole entry): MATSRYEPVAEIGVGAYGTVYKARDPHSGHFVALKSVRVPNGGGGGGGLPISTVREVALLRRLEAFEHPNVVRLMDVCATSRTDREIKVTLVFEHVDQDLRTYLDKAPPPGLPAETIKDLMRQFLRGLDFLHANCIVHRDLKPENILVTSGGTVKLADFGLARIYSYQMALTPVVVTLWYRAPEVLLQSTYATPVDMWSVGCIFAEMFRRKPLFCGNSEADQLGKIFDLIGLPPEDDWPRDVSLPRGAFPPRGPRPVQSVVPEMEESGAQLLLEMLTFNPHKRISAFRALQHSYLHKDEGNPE
Peripheral plasma membrane protein CASK (Homo sapiens), sequence (O14936 whole entry): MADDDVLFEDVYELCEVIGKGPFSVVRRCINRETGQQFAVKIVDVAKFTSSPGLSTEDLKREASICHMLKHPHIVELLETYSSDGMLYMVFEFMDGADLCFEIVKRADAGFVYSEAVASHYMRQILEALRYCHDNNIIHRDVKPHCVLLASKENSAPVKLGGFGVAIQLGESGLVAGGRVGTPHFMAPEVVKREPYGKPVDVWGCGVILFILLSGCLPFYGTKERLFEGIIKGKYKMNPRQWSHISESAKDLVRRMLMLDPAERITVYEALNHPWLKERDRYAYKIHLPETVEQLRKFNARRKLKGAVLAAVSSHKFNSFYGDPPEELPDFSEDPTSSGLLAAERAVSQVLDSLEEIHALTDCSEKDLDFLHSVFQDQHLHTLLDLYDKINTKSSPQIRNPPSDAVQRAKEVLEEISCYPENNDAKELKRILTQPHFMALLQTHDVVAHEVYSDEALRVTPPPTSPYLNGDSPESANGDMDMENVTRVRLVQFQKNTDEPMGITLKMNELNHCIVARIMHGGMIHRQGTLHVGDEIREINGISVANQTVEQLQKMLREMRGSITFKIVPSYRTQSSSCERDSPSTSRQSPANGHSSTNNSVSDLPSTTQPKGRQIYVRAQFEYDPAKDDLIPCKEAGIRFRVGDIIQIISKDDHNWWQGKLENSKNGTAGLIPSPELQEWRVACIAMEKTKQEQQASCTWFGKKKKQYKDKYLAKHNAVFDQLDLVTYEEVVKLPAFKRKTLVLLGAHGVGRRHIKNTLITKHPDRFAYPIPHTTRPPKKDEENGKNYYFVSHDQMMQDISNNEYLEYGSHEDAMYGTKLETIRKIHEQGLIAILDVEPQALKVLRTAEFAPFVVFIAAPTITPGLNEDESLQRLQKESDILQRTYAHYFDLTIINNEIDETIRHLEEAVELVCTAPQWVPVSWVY
Dual specificity protein kinase CLK2, sequence (P49760 whole entry, looked up): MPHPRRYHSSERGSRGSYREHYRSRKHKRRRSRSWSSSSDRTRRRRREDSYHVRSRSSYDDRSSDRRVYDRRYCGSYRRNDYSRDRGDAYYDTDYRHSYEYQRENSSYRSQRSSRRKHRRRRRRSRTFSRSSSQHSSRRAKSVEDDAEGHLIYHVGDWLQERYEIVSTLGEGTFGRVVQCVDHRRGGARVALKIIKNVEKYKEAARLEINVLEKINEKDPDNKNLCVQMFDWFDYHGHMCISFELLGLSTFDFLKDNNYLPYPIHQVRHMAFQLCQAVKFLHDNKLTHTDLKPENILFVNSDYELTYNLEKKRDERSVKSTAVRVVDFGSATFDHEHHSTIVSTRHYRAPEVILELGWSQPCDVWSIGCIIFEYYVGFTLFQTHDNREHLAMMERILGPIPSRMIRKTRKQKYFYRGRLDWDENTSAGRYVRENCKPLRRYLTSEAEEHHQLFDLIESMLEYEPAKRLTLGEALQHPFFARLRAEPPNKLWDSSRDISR
Serine/threonine-protein kinase Nek5 (Homo sapiens), sequence (Q6P3R8 whole entry): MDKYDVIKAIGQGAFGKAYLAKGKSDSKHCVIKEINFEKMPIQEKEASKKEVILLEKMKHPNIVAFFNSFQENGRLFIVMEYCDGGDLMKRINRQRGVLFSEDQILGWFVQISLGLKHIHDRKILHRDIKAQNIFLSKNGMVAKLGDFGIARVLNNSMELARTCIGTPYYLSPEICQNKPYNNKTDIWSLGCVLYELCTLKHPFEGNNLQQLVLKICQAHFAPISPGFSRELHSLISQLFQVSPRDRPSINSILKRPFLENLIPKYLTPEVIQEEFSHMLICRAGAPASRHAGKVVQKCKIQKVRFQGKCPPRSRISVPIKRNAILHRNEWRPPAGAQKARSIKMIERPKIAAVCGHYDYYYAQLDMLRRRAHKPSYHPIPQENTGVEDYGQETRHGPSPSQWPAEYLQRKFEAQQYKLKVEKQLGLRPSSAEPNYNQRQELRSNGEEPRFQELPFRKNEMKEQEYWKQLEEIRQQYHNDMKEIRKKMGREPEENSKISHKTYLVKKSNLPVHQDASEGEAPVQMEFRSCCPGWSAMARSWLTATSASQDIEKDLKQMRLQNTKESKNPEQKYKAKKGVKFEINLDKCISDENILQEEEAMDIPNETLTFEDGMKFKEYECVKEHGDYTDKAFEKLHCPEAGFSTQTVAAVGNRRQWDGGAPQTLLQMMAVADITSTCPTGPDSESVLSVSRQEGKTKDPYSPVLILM

C[C@@H](NC(=O)Nc1cc2[nH]ncc2c(CO)n1)c1ccccc1 [ERKi]
inactive: residual activity [1, 46] 97.6% | residual activity [2, 46] 100% | residual activity [3, 46] 79.8% | residual activity [4, 46] 100% | residual activity [5, 46] 68.5% | residual activity [6, 46] 100% | residual activity [7, 46] 100% | residual activity [8, 46] 53.7% | residual activity [9, 46] 55.9% | residual activity [10, 46] 100% | residual activity [11, 46] 72.5% | residual activity [12, 46] 100% | residual activity [13, 46] 68.1% | residual activity [14, 46] 98.2% | residual activity [15, 46] 84.5% | residual activity [16, 46] 85.7% | residual activity [17, 46] 83.9% | residual activity [18, 46] 76.1% | residual activity [19, 46] 96.6% | residual activity [20, 46] 100% | residual activity [21, 46] 89.7% | residual activity [22, 46] 66.7% | residual activity [23, 46] 86.3% | residual activity [24, 46] 76.1% | residual activity [25, 46] 91.2% | residual activity [26, 46] 98.1% | residual activity [27, 46] 80% | residual activity [28, 46] 61.5% | residual activity [29, 46] 96.5% | residual activity [30, 46] 95.8% | residual activity [31, 46] 80% | residual activity [32, 46] 81.1% | residual activity [33, 46] 100% | residual activity [34, 46] 95.9% | residual activity [35, 46] 66% | residual activity [36, 46] 97.1% | residual activity [37, 46] 100% | residual activity [38, 46] 77% | residual activity [39, 46] 71.2% | residual activity [40, 46] 85.3% | inhibition [41] -5.17% | residual activity [42, 46] 94.8% | inhibition [43] 9.2% | residual activity [44, 46] 87% | residual activity [45, 46] 86.3%

C[C@H](NC(=O)Nc1cc2[nH]ncc2c(CO)n1)c1ccccn1 [ERKi-NC]
inactive: residual activity [1, 47] 84.3% | residual activity [2, 47] 90.7% | residual activity [3, 47] 97.6% | residual activity [4, 47] 87.7% | residual activity [5, 47] 100% | residual activity [6, 47] 89.8% | residual activity [7, 47] 100% | residual activity [8, 47] 72.1% | residual activity [10, 47] 98% | residual activity [11, 47] 100% | residual activity [12, 47] 100% | residual activity [13, 47] 74.6% | residual activity [14, 47] 100% | residual activity [15, 47] 100% | residual activity [16, 47] 100% | residual activity [17, 47] 100% | residual activity [18, 47] 100% | residual activity [19, 47] 100% | residual activity [20, 47] 100% | residual activity [21, 47] 60.8% | residual activity [22, 47] 100% | residual activity [23, 47] 94.3% | residual activity [24, 47] 100% | residual activity [25, 47] 98.5% | residual activity [26, 47] 87.8% | residual activity [27, 47] 100% | residual activity [28, 47] 100% | residual activity [29, 47] 93.5% | residual activity [30, 47] 100% | residual activity [31, 47] 99.3% | residual activity [32, 47] 78.8% | residual activity [33, 47] 90% | residual activity [34, 47] 78% | residual activity [35, 47] 99.5% | residual activity [36, 47] 100% | residual activity [37, 47] 100% | residual activity [39, 47] 86.8% | residual activity [40, 47] 100% | inhibition [41] -1.84% | residual activity [42, 47] 100% | inhibition [43] 16.8% | residual activity [44, 47] 72.8% | residual activity [45, 47] 100%
active: residual activity [9, 47] 34.7% | residual activity [38, 47] 42.4%
